Laboratory results published in PubChem BioAssay AID192 (DTP/NCI, 2004).
“And” between values parts separate entries of the source, which are not always exact repeats. Identical values can stand only once. Inconclusive results and toxic doses are left out.

System: BDF1 mice, B16 melanoma ip, median survival T/C
Test: NCI In Vivo Anticancer Drug Screen. Data for tumor model B16 Melanoma (intraperitoneal) in B6D2F1 (BDF1) mice
Settings: endpoint: median survival time, higher = longer survival
Outline: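 Survival or tumor size is measured after treatment of tumor-bearing mice and normalised to the vehicle-treated control group.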

[1] = dose: 100.0 mg/kg/injection, schedule: Q01DX009 (ip), vehicle: Klucel (hydroxypropylcellulose) (HPC)
[2] = dose: 200.0 mg/kg/injection, schedule: Q01DX009 (ip), vehicle: Klucel (hydroxypropylcellulose) (HPC)
[3] = dose: 6.25 mg/kg/injection, schedule: Q01DX009 (ip), vehicle: Klucel (hydroxypropylcellulose) (HPC)
[4] = dose: 12.5 mg/kg/injection, schedule: Q01DX009 (ip), vehicle: Klucel (hydroxypropylcellulose) (HPC)
[5] = dose: 25.0 mg/kg/injection, schedule: Q01DX009 (ip), vehicle: Klucel (hydroxypropylcellulose) (HPC)
[6] = dose: 50.0 mg/kg/injection, schedule: Q01DX009 (ip), vehicle: Klucel (hydroxypropylcellulose) (HPC)
[7] = dose: 6.25 mg/kg/injection, schedule: Q01DX009 (ip), vehicle: saline with Tween-80
[8] = dose: 400.0 mg/kg/injection, schedule: Q01DX009 (ip), vehicle: Klucel (hydroxypropylcellulose) (HPC)
[9] = dose: 1.56 mg/kg/injection, schedule: Q01DX009 (ip), vehicle: saline with Tween-80
[10] = dose: 3.13 mg/kg/injection, schedule: Q01DX009 (ip), vehicle: saline with Tween-80

C/C=C\C(C)=C/C(C)C(=O)CC(O)CC1CC(=O)NC(=O)C1 (configuration not stated)
T/C (dose: 3.12 mg/kg/injection, schedule: Q01DX009 (ip), vehicle: DMSO): 95 % of control
T/C (dose: 6.25 mg/kg/injection, schedule: Q01DX009 (ip), vehicle: DMSO): 119 % of control
T/C (dose: 12.5 mg/kg/injection, schedule: Q01DX009 (ip), vehicle: DMSO): 103 % of control
T/C (dose: 25.0 mg/kg/injection, schedule: Q01DX009 (ip), vehicle: DMSO): 96 % of control

O=S(=O)(O)CNc1cc(Cl)cc(Cl)c1
T/C [1]: 108 % of control
T/C [2]: 94 % of control

CCCCCC[C@H]([C@H](C)O)n1cnc2c(N)ncnc21
T/C [3]: 93 % of control
T/C [4]: 86 % of control
T/C [5]: 93 % of control and 94 % of control
T/C [6]: 93 % of control and 106 % of control
T/C [1]: 104 % of control

CN(C)CCCN1c2ccccc2Sc2cnccc21
T/C (dose: 25.0 mg/kg/injection, schedule: Q01DX009 (ip), vehicle: saline): 115 % of control
T/C (dose: 50.0 mg/kg/injection, schedule: Q01DX009 (ip), vehicle: saline): 93 % of control
T/C (dose: 100.0 mg/kg/injection, schedule: Q01DX009 (ip), vehicle: saline): 115 % of control

CSc1nc2ccccc2s1
T/C [6]: 106 % of control
T/C [1]: 115 % of control

Cc1nc2ccccc2nc1CI
T/C (dose: 0.75 mg/kg/injection, schedule: Q01DX009 (ip), vehicle: saline with Tween-80): 106 % of control
T/C (dose: 1.5 mg/kg/injection, schedule: Q01DX009 (ip), vehicle: saline with Tween-80): 93 % of control
T/C (dose: 3.0 mg/kg/injection, schedule: Q01DX009 (ip), vehicle: saline with Tween-80): 106 % of control
T/C (dose: 6.0 mg/kg/injection, schedule: Q01DX009 (ip), vehicle: saline with Tween-80): 93 % of control
T/C [7]: 91 % of control

CCOc1ccc(NC(=O)COc2ccc(Cl)cc2)cc1
T/C [1]: 103 % of control
T/C [2]: 109 % of control
T/C [8]: 93 % of control

[Cl][Pt+2][Cl].[NH-]c1cc(Cl)c(Cl)cc1[NH-]
T/C (dose: 40.0 mg/kg/injection, schedule: Q01DX009 (ip), vehicle: saline with Tween-80): 114 % of control
T/C (dose: 80.0 mg/kg/injection, schedule: Q01DX009 (ip), vehicle: saline with Tween-80): 118 % of control
T/C (dose: 320.0 mg/kg/injection, schedule: Q01DX009 (ip), vehicle: saline with Tween-80): 113 % of control

COc1cc(O)c(Cc2ccccc2O)c(O)c1C(=O)CCc1ccccc1
T/C (dose: 1.25 mg/kg/injection, schedule: Q01DX009 (ip), vehicle: other): 100 % of control
T/C (dose: 2.5 mg/kg/injection, schedule: Q01DX009 (ip), vehicle: other): 100 % of control
T/C (dose: 5.0 mg/kg/injection, schedule: Q01DX009 (ip), vehicle: other): 92 % of control
T/C (dose: 10.0 mg/kg/injection, schedule: Q01DX009 (ip), vehicle: other): 100 % of control

CSc1nc(Cl)c(Br)c(Cl)n1
T/C [9]: 110 % of control
T/C [10]: 112 % of control
T/C [7]: 102 % of control
T/C (dose: 12.5 mg/kg/injection, schedule: Q01DX009 (ip), vehicle: saline with Tween-80): 108 % of control

COc1ccccc1N1CCN(CCCC(=O)c2ccc(F)cc2)CC1
T/C (dose: 0.09 mg/kg/injection, schedule: Q04DX003 (ip), vehicle: Klucel (hydroxypropylcellulose) (HPC)): 93 % of control
T/C (dose: 0.19 mg/kg/injection, schedule: Q04DX003 (ip), vehicle: Klucel (hydroxypropylcellulose) (HPC)): 91 % of control
T/C (dose: 0.39 mg/kg/injection, schedule: Q04DX003 (ip), vehicle: Klucel (hydroxypropylcellulose) (HPC)): 96 % of control
T/C (dose: 0.78 mg/kg/injection, schedule: Q04DX003 (ip), vehicle: Klucel (hydroxypropylcellulose) (HPC)): 87 % of control
T/C (dose: 1.56 mg/kg/injection, schedule: Q04DX003 (ip), vehicle: Klucel (hydroxypropylcellulose) (HPC)): 90 % of control
T/C [3]: 92 % of control
T/C [4]: 92 % of control
T/C [5]: 100 % of control
T/C [6]: 105 % of control

OCC1OC(n2cnc3c2NC=NC[C@H]3O)CC1O (some centres not stated)
T/C (dose: 0.06 mg/kg/injection, schedule: Q01DX009 (ip), vehicle: saline): 109 % of control
T/C (dose: 0.12 mg/kg/injection, schedule: Q01DX009 (ip), vehicle: saline): 104 % of control
T/C (dose: 0.25 mg/kg/injection, schedule: Q01DX009 (ip), vehicle: saline): 101 % of control and 103 % of control
T/C (dose: 0.5 mg/kg/injection, schedule: Q01DX009 (ip), vehicle: saline): 102 % of control and 106 % of control
T/C (dose: 1.0 mg/kg/injection, schedule: Q01DX009 (ip), vehicle: saline): 90 % of control and 98 % of control
T/C (dose: 2.0 mg/kg/injection, schedule: Q01DX009 (ip), vehicle: saline): 86 % of control

COC(=O)CC1(O)C=CC(=O)C=C1
T/C (dose: 1.56 mg/kg/injection, schedule: Q01DX009 (ip), vehicle: Klucel (hydroxypropylcellulose) (HPC)): 95 % of control
T/C (dose: 2.5 mg/kg/injection, schedule: Q01DX009 (ip), vehicle: saline with Tween-80): 98 % of control
T/C (dose: 3.12 mg/kg/injection, schedule: Q01DX009 (ip), vehicle: Klucel (hydroxypropylcellulose) (HPC)): 96 % of control
T/C (dose: 5.0 mg/kg/injection, schedule: Q01DX009 (ip), vehicle: saline with Tween-80): 102 % of control
T/C [3]: 97 % of control
T/C (dose: 10.0 mg/kg/injection, schedule: Q01DX009 (ip), vehicle: saline with Tween-80): 93 % of control
T/C [4]: 94 % of control
T/C (dose: 20.0 mg/kg/injection, schedule: Q01DX009 (ip), vehicle: saline with Tween-80): 102 % of control
T/C [5]: 91 % of control

Cc1ccc(C)c(NC(=O)Nc2ccccc2C)c1
T/C (dose: 50.0 mg/kg/injection, schedule: Q04DX003 (ip), vehicle: Klucel (hydroxypropylcellulose) (HPC)): 87 % of control
T/C (dose: 200.0 mg/kg/injection, schedule: Q04DX003 (ip), vehicle: Klucel (hydroxypropylcellulose) (HPC)): 87 % of control

CC1=C(CCC(=O)O)c2cc3nc(cc4[nH]c(cc4C)cc4[nH]c(cc1n2)cc4C)C(C)(C)C3CCC(=O)O (configuration not stated)
T/C (dose: 3.0 mg/kg/injection, schedule: Q01DX009 (ip), vehicle: Klucel (hydroxypropylcellulose) (HPC)): 109 % of control
T/C (dose: 6.0 mg/kg/injection, schedule: Q01DX009 (ip), vehicle: Klucel (hydroxypropylcellulose) (HPC)): 101 % of control
T/C (dose: 12.0 mg/kg/injection, schedule: Q01DX009 (ip), vehicle: Klucel (hydroxypropylcellulose) (HPC)): 90 % of control
T/C (dose: 24.0 mg/kg/injection, schedule: Q01DX009 (ip), vehicle: Klucel (hydroxypropylcellulose) (HPC)): 104 % of control

COC1=CC(=O)N(C(=O)C2CSC(C(CO)NC(=O)c3csc(/C=N/O)n3)=N2)C1 (configuration not stated)
T/C [1]: 97 % of control
T/C [8]: 106 % of control

CNc1ccccc1Cc1ccccc1
T/C [6]: 103 % of control
T/C [1]: 90 % of control
T/C [2]: 99 % of control

ClC(Cl)=[C](Cl)[Hg][C](Cl)=C(Cl)Cl
T/C (dose: 3.13 mg/kg/injection, schedule: Q01DX009 (ip), vehicle: Klucel (hydroxypropylcellulose) (HPC)): 120 % of control
T/C [3]: 99 % of control
T/C [4]: 92 % of control

Cc1c(N)nc(C(CC(N)=O)NCC(N)C(N)=O)nc1C(=O)NC(C(=O)NC(C)C(O)C(C)C(=O)NC(C(=O)NCCc1nc(-c2nc(C(=O)NCCCNCCCc3ccccn3)cs2)cs1)C(C)O)C(OC1OC(CO)C(O)C(O)C1OC1OC(CO)C(O)C(OC(N)=O)C1O)c1cnc[nH]1 (configuration not stated)
T/C (dose: 1.5 mg/kg/injection, schedule: Q01DX009 (ip), vehicle: water): 93 % of control
T/C (dose: 3.0 mg/kg/injection, schedule: Q01DX009 (ip), vehicle: water): 102 % of control
T/C (dose: 6.0 mg/kg/injection, schedule: Q01DX009 (ip), vehicle: water): 102 % of control and 105 % of control
T/C (dose: 12.0 mg/kg/injection, schedule: Q01DX009 (ip), vehicle: water): 105 % of control and 110 % of control
T/C (dose: 24.0 mg/kg/injection, schedule: Q01DX009 (ip), vehicle: water): 100 % of control

Cc1c2cc[n+](C)c(C)c2cc2c1[nH]c1ccc(O)cc12
T/C (dose: 2.5 mg/kg/injection, schedule: Q04DX003 (ip), vehicle: water): 117 % of control and 120 % of control
T/C (dose: 10.0 mg/kg/injection, schedule: Q04DX003 (ip), vehicle: water): 150 % of control

C[C@@H]1C[C@@]2(O[C@@H]2C)C(=O)O[C@@H]2CCN3CC=C(COC(=O)[C@]1(C)O)[C@H]23
T/C (dose: 10.0 mg/kg/injection, schedule: Q01DX009 (ip), vehicle: saline): 102 % of control
T/C (dose: 20.0 mg/kg/injection, schedule: Q01DX009 (ip), vehicle: saline): 102 % of control
T/C (dose: 40.0 mg/kg/injection, schedule: Q01DX009 (ip), vehicle: saline): 104 % of control

CC(=O)OC1CCC2(C)C(CCC3C2C(=O)C(OC(C)=O)C2(C)C3CC3OC4(CCC(C)CO4)C(C)C32)C1 (configuration not stated)
T/C [9]: 98 % of control
T/C [10]: 108 % of control
T/C [7]: 91 % of control and 93 % of control
T/C (dose: 25.0 mg/kg/injection, schedule: Q01DX009 (ip), vehicle: saline with Tween-80): 89 % of control
